From PubChem BioAssay (NCI)
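48-hour exposure; five concentrations; linearly interpolated endpoints. GI50 = concentration required for 50% inhibition of growth. TGI: total growth inhibition.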

Columns and labels:
Assay in all cases: DTP human tumour cell line panel, 48 h
786-0 renal = system: 786-0 renal
A498 renal = system: A498 renal
A549 NSCLC = system: A549 NSCLC
ACHN renal = system: ACHN renal
BT-549 breast = system: BT-549 breast
CAKI-1 renal = system: CAKI-1 renal
CCRF-CEM leukemia = system: CCRF-CEM leukemia
COLO 205 colon = system: COLO 205 colon
DU-145 prostate = system: DU-145 prostate
EKVX NSCLC = system: EKVX NSCLC
HCC-2998 colon = system: HCC-2998 colon
HCT-116 colon = system: HCT-116 colon
HCT-15 colon = system: HCT-15 colon
HOP-62 NSCLC = system: HOP-62 NSCLC
HS 578T breast = system: HS 578T breast
HT29 colon = system: HT29 colon
IGROV1 ovarian = system: IGROV1 ovarian
K-562 leukemia = system: K-562 leukemia
KM12 colon = system: KM12 colon
M14 melanoma = system: M14 melanoma
MALME-3M melanoma = system: MALME-3M melanoma
MCF7 breast = system: MCF7 breast
MDA-MB-231 breast = system: MDA-MB-231 breast
MDA-MB-435 = system: MDA-MB-435
MOLT-4 leukemia = system: MOLT-4 leukemia
NCI-H226 lung = system: NCI-H226 lung
NCI-H23 lung = system: NCI-H23 lung
NCI-H460 lung = system: NCI-H460 lung
NCI-H522 lung = system: NCI-H522 lung
NCI/ADR-RES ovarian = system: NCI/ADR-RES ovarian
OVCAR-3 ovarian = system: OVCAR-3 ovarian
OVCAR-4 ovarian = system: OVCAR-4 ovarian
OVCAR-5 ovarian = system: OVCAR-5 ovarian
OVCAR-8 ovarian = system: OVCAR-8 ovarian
PC-3 prostate = system: PC-3 prostate
RPMI-8226 leukemia = system: RPMI-8226 leukemia
RXF 393 renal = system: RXF 393 renal
SF-268 CNS = system: SF-268 CNS
SF-295 CNS = system: SF-295 CNS
SK-MEL-2 melanoma = system: SK-MEL-2 melanoma
SK-MEL-28 melanoma = system: SK-MEL-28 melanoma
SK-MEL-5 melanoma = system: SK-MEL-5 melanoma
SK-OV-3 ovarian = system: SK-OV-3 ovarian
SN12C renal = system: SN12C renal
SNB-19 CNS = system: SNB-19 CNS
SNB-75 CNS = system: SNB-75 CNS
SR leukemia = system: SR leukemia
SW-620 colon = system: SW-620 colon
T-47D breast = system: T-47D breast
TK-10 renal = system: TK-10 renal
U251 CNS = system: U251 CNS
UACC-257 melanoma = system: UACC-257 melanoma
UACC-62 melanoma = system: UACC-62 melanoma
UO-31 renal = system: UO-31 renal
HL-60(TB) leukemia = system: HL-60(TB) leukemia
HOP-92 NSCLC = system: HOP-92 NSCLC
LOX IMVI melanoma = system: LOX IMVI melanoma
SF-539 CNS = system: SF-539 CNS

OCCN(CCO)c1ccc2c(-c3ccccc3)cc(N(CCO)CCO)nc2n1
TGI (786-0 renal): > 100 µM | TGI (A498 renal): > 100 µM | TGI (A549 NSCLC): > 100 µM | TGI (ACHN renal): > 100 µM | TGI (BT-549 breast): > 100 µM | TGI (CAKI-1 renal): > 100 µM | TGI (CCRF-CEM leukemia): > 100 µM | TGI (COLO 205 colon): > 100 µM | TGI (DU-145 prostate): > 100 µM | TGI (EKVX NSCLC): > 100 µM | TGI (HCC-2998 colon): > 100 µM | TGI (HCT-116 colon): > 100 µM | TGI (HCT-15 colon): > 100 µM | TGI (HOP-62 NSCLC): > 100 µM | TGI (HS 578T breast): > 100 µM | TGI (HT29 colon): > 100 µM | TGI (IGROV1 ovarian): > 100 µM | TGI (K-562 leukemia): > 100 µM | TGI (KM12 colon): > 100 µM | TGI (M14 melanoma): > 100 µM | TGI (MALME-3M melanoma): > 100 µM | TGI (MCF7 breast): > 100 µM | TGI (MDA-MB-231 breast): > 100 µM | TGI (MDA-MB-435): > 100 µM | TGI (MOLT-4 leukemia): > 100 µM | TGI (NCI-H226 lung): > 100 µM | TGI (NCI-H23 lung): > 100 µM | TGI (NCI-H460 lung): > 100 µM | TGI (NCI-H522 lung): > 100 µM | TGI (NCI/ADR-RES ovarian): > 100 µM | TGI (OVCAR-3 ovarian): > 100 µM | TGI (OVCAR-4 ovarian): > 100 µM | TGI (OVCAR-5 ovarian): > 100 µM | TGI (OVCAR-8 ovarian): > 100 µM | TGI (PC-3 prostate): > 100 µM | TGI (RPMI-8226 leukemia): > 100 µM | TGI (RXF 393 renal): > 100 µM | TGI (SF-268 CNS): > 100 µM | TGI (SF-295 CNS): > 100 µM | TGI (SK-MEL-2 melanoma): > 100 µM | TGI (SK-MEL-28 melanoma): > 100 µM | TGI (SK-MEL-5 melanoma): > 100 µM | TGI (SK-OV-3 ovarian): > 100 µM | TGI (SN12C renal): > 100 µM | TGI (SNB-19 CNS): > 100 µM | TGI (SNB-75 CNS): > 100 µM | TGI (SR leukemia): > 100 µM | TGI (SW-620 colon): > 100 µM | TGI (T-47D breast): > 100 µM | TGI (TK-10 renal): > 100 µM | TGI (U251 CNS): > 100 µM | TGI (UACC-257 melanoma): > 100 µM | TGI (UACC-62 melanoma): > 100 µM | TGI (UO-31 renal): > 100 µM

COc1cc(OC)c(/C=C/c2cc[n+](C)c3ccccc23)c(OC)c1
GI50 (786-0 renal): 4.4 µM | TGI (786-0 renal): 22.3 µM | GI50 (A498 renal): 1.24 µM | TGI (A498 renal): 6.04 µM | GI50 (A549 NSCLC): 1.8 µM | TGI (A549 NSCLC): 54.6 µM | GI50 (ACHN renal): 13.5 µM | TGI (ACHN renal): > 100 µM | GI50 (BT-549 breast): 1.79 µM | TGI (BT-549 breast): 13.6 µM | GI50 (CAKI-1 renal): 18.3 µM | TGI (CAKI-1 renal): > 100 µM | GI50 (CCRF-CEM leukemia): 2.71 µM | TGI (CCRF-CEM leukemia): > 100 µM | GI50 (COLO 205 colon): 1.23 µM | TGI (COLO 205 colon): 2.9 µM | GI50 (DU-145 prostate): 2.47 µM | TGI (DU-145 prostate): 15.5 µM | GI50 (HCC-2998 colon): 2.46 µM | TGI (HCC-2998 colon): 13.9 µM | GI50 (HCT-116 colon): 1.27 µM | TGI (HCT-116 colon): 33.7 µM | GI50 (HCT-15 colon): 23.3 µM | TGI (HCT-15 colon): > 100 µM | GI50 (HL-60(TB) leukemia): 1.33 µM | TGI (HL-60(TB) leukemia): 8.58 µM | GI50 (HOP-62 NSCLC): 3.17 µM | TGI (HOP-62 NSCLC): 20.8 µM | GI50 (HOP-92 NSCLC): 1.42 µM | TGI (HOP-92 NSCLC): 4.7 µM | GI50 (HS 578T breast): 1.48 µM | TGI (HS 578T breast): 12.4 µM | GI50 (HT29 colon): 1.94 µM | TGI (HT29 colon): 7.28 µM | GI50 (IGROV1 ovarian): 3.62 µM | TGI (IGROV1 ovarian): 25.9 µM | GI50 (K-562 leukemia): 1 µM | TGI (K-562 leukemia): > 100 µM | GI50 (KM12 colon): 1.41 µM | TGI (KM12 colon): 3.95 µM | GI50 (LOX IMVI melanoma): 1.29 µM | TGI (LOX IMVI melanoma): 3.15 µM | GI50 (M14 melanoma): 2.88 µM | TGI (M14 melanoma): 15.8 µM | GI50 (MALME-3M melanoma): 1.87 µM | TGI (MALME-3M melanoma): 8.04 µM | GI50 (MCF7 breast): 2.7 µM | TGI (MCF7 breast): > 100 µM | GI50 (MDA-MB-231 breast): 2.77 µM | TGI (MDA-MB-231 breast): 12.8 µM | GI50 (MDA-MB-435): 1.83 µM | TGI (MDA-MB-435): 7.37 µM | GI50 (MOLT-4 leukemia): 3.19 µM | TGI (MOLT-4 leukemia): 33.9 µM | GI50 (NCI-H226 lung): 1.99 µM | TGI (NCI-H226 lung): 17.3 µM | GI50 (NCI-H23 lung): 1.74 µM | TGI (NCI-H23 lung): 17.3 µM | GI50 (NCI-H460 lung): 0.98 µM | TGI (NCI-H460 lung): 5.85 µM | GI50 (NCI-H522 lung): 1.61 µM | TGI (NCI-H522 lung): 6.34 µM | GI50 (NCI/ADR-RES ovarian): > 100 µM | TGI (NCI/ADR-RES ovarian): > 100 µM | GI50 (OVCAR-3 ovarian): 1.68 µM | TGI (OVCAR-3 ovarian): 7.35 µM | GI50 (OVCAR-4 ovarian): 2.51 µM | TGI (OVCAR-4 ovarian): 23 µM | GI50 (OVCAR-5 ovarian): 3.66 µM | TGI (OVCAR-5 ovarian): 38.7 µM | GI50 (OVCAR-8 ovarian): 1.62 µM | TGI (OVCAR-8 ovarian): 10.2 µM | GI50 (PC-3 prostate): 1.68 µM | TGI (PC-3 prostate): 12.6 µM | GI50 (RPMI-8226 leukemia): 0.648 µM | TGI (RPMI-8226 leukemia): 11.6 µM | GI50 (RXF 393 renal): 2.66 µM | TGI (RXF 393 renal): 19.2 µM | GI50 (SF-268 CNS): 0.691 µM | TGI (SF-268 CNS): 12.8 µM | GI50 (SF-295 CNS): 0.702 µM | TGI (SF-295 CNS): 6.48 µM | GI50 (SF-539 CNS): 2.14 µM | TGI (SF-539 CNS): 10.9 µM | GI50 (SK-MEL-2 melanoma): 2.66 µM | TGI (SK-MEL-2 melanoma): 6.32 µM | GI50 (SK-MEL-28 melanoma): 2.3 µM | TGI (SK-MEL-28 melanoma): 9.77 µM | GI50 (SK-MEL-5 melanoma): 0.928 µM | TGI (SK-MEL-5 melanoma): 2.39 µM | GI50 (SK-OV-3 ovarian): 3.32 µM | TGI (SK-OV-3 ovarian): 17.5 µM | GI50 (SN12C renal): 1.05 µM | TGI (SN12C renal): 13 µM | GI50 (SNB-19 CNS): 0.795 µM | TGI (SNB-19 CNS): 15.4 µM | GI50 (SNB-75 CNS): 0.932 µM | TGI (SNB-75 CNS): 11.2 µM | GI50 (SR leukemia): 1.92 µM | TGI (SR leukemia): > 100 µM | GI50 (SW-620 colon): 2.56 µM | TGI (SW-620 colon): 16.9 µM | GI50 (T-47D breast): 1.72 µM | TGI (T-47D breast): 33.7 µM | GI50 (TK-10 renal): 3.54 µM | TGI (TK-10 renal): 18.1 µM | GI50 (U251 CNS): 0.536 µM | TGI (U251 CNS): 11.7 µM | GI50 (UACC-257 melanoma): 1.86 µM | TGI (UACC-257 melanoma): 5.98 µM | GI50 (UACC-62 melanoma): 1.58 µM | TGI (UACC-62 melanoma): 5.66 µM | GI50 (UO-31 renal): 17.3 µM | TGI (UO-31 renal): > 100 µM
